Experiments:
[1] = test system: Daudi non-Hodgkin lymphoma xenograft model; design: method as in PMID 22693356; conditions: cited from earlier work
Mnk2 = Mnk2 (Homo sapiens, UniProt Q9HBH9); experiment: Mnks inhibition HTRF assay (Mnk2); format: biochemical; conditions: compound at 1 μM, 39.2 µM ATP, mean of triple independent experiments, read-out: %inhib. 1 μM Mnk2
Experimental: (§1) To investigate the HDAC and Mnk inhibitory potency of the target compounds, the inhibition rate of Mnk1 and Mnk2 at 1 μM were determined using homogeneous time-resolved fluorescence assay (HTRF) and the IC50 value against HDAC was determined by fluorescence analysis.
1.00 ng of Mnk1 or Mnk2 was incubated with different concentrations (10,000 nM, 1000 nM, 100 nM, 10 nM, and 1 nM) of test compounds in an 10 µL reaction mixture (Mnk1: 1 µM substrate S1, 10 mM MgCl2, 121 µM ATP, 1 × KinEASE enzymatic buffer and 1 mM dithiothreitol (DTT Mnk2: 1 µM substrate S1, 10 mM MgCl2, 39.2 µM ATP, 1 × KinEASE enzymatic buffer and 1 mM DTT for 60 min at 25 °C. The mixture of 5 µL SA-XL665 and 5 µL STK Ab detection reagents following the kit protocol was added to terminate the reaction.

Mnk1 = molecular target: T1, Mnk1 (Homo sapiens, UniProt Q9BUB5); experiment: Mnks inhibition HTRF assay (Mnk1); format: biochemical; conditions: compound at 1 μM, 121 µM ATP, mean of triple independent experiments, read-out: %inhib. 1 μM Mnk1
T1 construct: 1.00 ng of Mnk1 or Mnk2 was incubated with different concentrations

PC-3 cells = experiment: Anti-proliferative MTT assay; format: cell-based; conditions: Homo sapiens, 96 h incubation, mean of three experiments
Experimental: As Mnks and HDACs are overexpressed in prostate cancer, the GI50 values of the target compounds against PC-3 cell line were determined by an MTT assay. […] When the zinc-binding motif was hydroxamic acid, the anti-proliferative effect was better than o-phenylenediamine (except A03 and A04). The length of the flexible linker has a significant influence on the anti-proliferative activity: compounds containing a NH unite and 6 methylene groups were greatly better than compounds containing a NH unite and 5 methylene groups (A11 vs. A12).
The human prostatic cancer PC-3 cell line was cultured in RPMI1640 with 10% (v/v) heat-inactivated fetal bovine serum. The anti-proliferative activity of synthetic compounds were evaluated by the methylthiazolyltetrazolium bromide (MTT) assay. Cells (2 × 10^4 cells/well) were incubated in a humidified atmosphere with 5% CO2 at 37 °C for 24 h, then various concentrations of each compound mixed in […] medium were added to each well. After incubated for another 96 h, MTT solution (50 μL of 2 mg/mL) was added to each well and incubated for an additional 4 h. The medium was removed by aspiration and the cells were dissolved in […] DMSO. The absorbance at 570 nm was measured in the 96-well plate reader. Growth inhibition was calculated and expressed as the ratio of the cell number in the treated group to that of the untreated group. The GI50 values were calculated according to inhibition ratios. All experiments were performed three times independently, and the results were reported presented as the mean.

HDACs = HDACs inhibition fluorescence assay (HeLa nuclear extracts); format: biochemical; conditions: substrate Boc-Lys(Ac)-AMC, mean of duplicate experiments
Experimental: as §1
The general procedure for the enzyme assay was carried out according to the published protocol with slight modification. For the HDACs assay, HeLa nuclear extracts (Enzo Life Sciences, NY, USA) were used as a source of histone deacetylase. All reactions were performed in the black half area 96-well microplates. A serial dilution of the inhibitors and enzymes were pre-incubated at 25 °C for 15 min, and then fluorogenic substrate Boc-Lys(Ac)-AMC was added. After incubation at 37 °C for 60 min, the mixture was stopped by the addition of […] of developer containing trypsin and vorinostat for 10 min. Fluorescence intensity was measured using a Varioskan Flash Station (Thermo Scientific, MA, USA) at excitation and emission wavelengths of 355 (or 360 for the HeLa NuEx) and 460 nm, respectively. The IC50 values were extracted by curve fitting the dose/response slopes.

Sequence of Mnk2 (Q9HBH9 whole entry): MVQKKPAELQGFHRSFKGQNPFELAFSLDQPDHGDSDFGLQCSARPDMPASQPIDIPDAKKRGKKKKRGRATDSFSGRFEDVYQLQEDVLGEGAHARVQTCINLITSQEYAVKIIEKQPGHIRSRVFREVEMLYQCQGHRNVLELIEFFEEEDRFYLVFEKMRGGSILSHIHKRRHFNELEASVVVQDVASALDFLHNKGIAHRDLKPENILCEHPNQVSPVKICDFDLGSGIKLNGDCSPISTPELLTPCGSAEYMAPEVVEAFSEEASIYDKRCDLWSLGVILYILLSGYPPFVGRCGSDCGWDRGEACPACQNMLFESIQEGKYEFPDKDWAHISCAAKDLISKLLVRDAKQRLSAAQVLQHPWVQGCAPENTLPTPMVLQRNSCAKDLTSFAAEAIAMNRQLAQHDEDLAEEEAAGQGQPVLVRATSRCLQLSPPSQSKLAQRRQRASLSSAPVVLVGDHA
T1 sequence (Q9BUB5 whole entry): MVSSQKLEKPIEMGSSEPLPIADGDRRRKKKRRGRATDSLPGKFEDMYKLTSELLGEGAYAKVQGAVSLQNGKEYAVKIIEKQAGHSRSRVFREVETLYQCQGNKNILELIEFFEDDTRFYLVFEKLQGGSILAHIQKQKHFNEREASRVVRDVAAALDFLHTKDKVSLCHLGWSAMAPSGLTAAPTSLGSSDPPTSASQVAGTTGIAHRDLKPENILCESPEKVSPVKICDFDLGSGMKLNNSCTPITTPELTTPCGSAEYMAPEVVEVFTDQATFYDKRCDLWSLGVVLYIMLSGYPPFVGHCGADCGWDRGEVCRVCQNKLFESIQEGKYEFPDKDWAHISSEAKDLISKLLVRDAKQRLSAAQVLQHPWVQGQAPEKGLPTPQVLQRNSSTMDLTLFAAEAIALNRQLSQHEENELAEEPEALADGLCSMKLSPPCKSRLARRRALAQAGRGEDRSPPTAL

Row | SMILES | tumor growth ([1]; Daudi non-Hodgkin lymphoma xenograft model) | Ac-H3 and p-AKT levels ([1]; in vivo anti-tumor activity studies) | inhibition at 1 µM (Mnk2) | melting point | inhibition at 1 µM (Mnk1) | GI50 (PC-3 cells) | IC50 (HDACs)
1 | COc1ccc(-c2nc(N3CCOCC3)c3sc(CN(C)c4ncc(C(=O)NO)cn4)cc3n2)cn1 [CUDC-907] | inhibited tumor growth in a dose-dependent manner | accumulation of Ac-H3 and a decrease in p-AKT levels | – | – | – | – | –
2 | O=C(CCCCCCNc1ccc2ncnc(Nc3ccc(F)c(Cl)c3)c2n1)NO [Compound A19, 7-((4-((3-Chloro-4-fluorophenyl)amino)pyrido[3,2-d]pyrimidin-6-yl)amino)-N-hydroxyheptanamide] | – | – | 56% | 207.9 to 208.5 °C | 16% | > 20000 nM | 1180 nM

Reference: article PMC7571151, “Design, Synthesis and Bioactivity Evaluation of 4,6-Disubstituted Pyrido[3,2-d]pyrimidine Derivatives as Mnk and HDAC Inhibitors” (Molecules, 2020)
